Laboratory results: patent US10597388B2, “Pyridazinone herbicides” (FMC CORPORATION, priority 2014, dated 2020)

Tests used:
Test in all cases: Test D controlled growth environment herbicide test, pre- and postemergence
Assay type in all cases: in vivo
[1] = tested on: barley, spring (spring barley, Hordeum vulgare)
Method in brief: (§1)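 Pre-emergence: seeds sown in silt loam soil were sprayed with compound in a non-phytotoxic solvent mix containing surfactant. Post-emergence: plants at 2 to 18 cm (1- to 4-leaf stage) in peat moss/vermiculite medium got the same formulation. Visual 0–100 rating versus controls after 14 to 21 d.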

[2] = tested on: radish, wild (wild radish, Raphanus raphanistrum)
Method in brief: as §1

[3] = tested on: buckwheat, wild (wild buckwheat, Polygonum convolvulus)
Method in brief: as §1

kochia (Kochia scoparia) = tested on: kochia (Kochia scoparia)
Method in brief: as §1

[4] = tested on: galium (catchweed bedstraw, Galium aparine)
Method in brief: as §1

[5] = tested on: chamomile (scentless chamomile, Matricaria inodora)
Method in brief: as §1

[6] = tested on: canarygrass (Phalaris minor)
Method in brief: as §1

[7] = tested on: windgrass (Apera spica-venti)
Method in brief: as §1

[8] = tested on: field violet (Viola arvensis)
Method in brief: as §1

[9] = tested on: bluegrass (annual bluegrass, Poa annua)
Method in brief: as §1

[10] = tested on: field poppy (Papaver rhoeas)
Method in brief: as §1

[11] = tested on: lambsquarters (Chenopodium album)
Method in brief: as §1

[12] = tested on: pigweed (Amaranthus retroflexus)
Method in brief: as §1

[13] = tested on: barley, winter (winter barley, Hordeum vulgare)
Method in brief: as §1

[14] = Postemergence, 31 g ai/ha, scale 0 to 100 (0 no effect, 100 complete control)
[15] = Postemergence, 125 g ai/ha, visual rating on scale 0 (no effect) to 100 (complete control), 14 to 21 d
[16] = Postemergence, 250 g ai/ha, scale 0 to 100 (0 no effect, 100 complete control)
[17] = Preemergence, 62 g ai/ha, scale 0 to 100 (0 no effect, 100 complete control)
[18] = Preemergence, 125 g ai/ha, scale 0 to 100 (0 no effect, 100 complete control)
[19] = Preemergence, 250 g ai/ha, scale 0 to 100, 0 no effect, 100 complete control
[20] = postemergence, 62 g ai/ha, scale 0 to 100, 0 no effect, 100 complete control

## CCc1sc2c(C)cc(C)cc2c1-c1c(O)c(C)nn(C)c1=O [Compound 57]
[1]; [14]
  Barley, Spring plant response rating: 10
[1]; [15]
  Plant response rating, Barley, Spring: 10
[1]; [16]
  Plant response rating, Barley, Spring: 10
[1]; Preemergence, 31 g ai/ha
  Plant response rating (scale of 0 to 100), Barley, Spring: 5
[1]; [17]
  Plant response rating, Barley, Spring: 10
[1]; [18]
  Plant response rating, Barley, Spring: 10
[1]; [19]
  Plant response rating, Barley, Spring: 10
[1]; [20]
  Plant response rating, Barley, Spring: 10
[2]; [14]
  Radish, Wild plant response rating: 40
[2]; [15]
  Plant response rating, Radish, Wild: 100
[2]; [16]
  Plant response rating, Radish, Wild: 90
[2]; Preemergence, 31 g ai/ha
  Plant response rating (scale of 0 to 100), Radish, Wild: 0
[2]; [17]
  Plant response rating, Radish, Wild: 10
[2]; [18]
  Plant response rating, Radish, Wild: 25
[2]; [19]
  Plant response rating, Radish, Wild: 100
[2]; [20]
  Plant response rating, Radish, Wild: 100
[3]; [14]
  Buckwheat, Wild plant response rating: 80
[3]; [15]
  Plant response rating, Buckwheat, Wild: 85
[3]; [16]
  Plant response rating, Buckwheat, Wild: 100
[3]; Preemergence, 31 g ai/ha
  Plant response rating (scale of 0 to 100), Buckwheat, Wild: 0
[3]; [17]
  Plant response rating, Buckwheat, Wild: 10
[3]; [18]
  Plant response rating, Buckwheat, Wild: 10
[3]; [19]
  Plant response rating, Buckwheat, Wild: 100
[3]; [20]
  Plant response rating, Buckwheat, Wild: 85
Kochia (Kochia scoparia); [14]
  Kochia plant response rating: 40
Kochia (Kochia scoparia); [15]
  Plant response rating, Kochia: 65
Kochia (Kochia scoparia); [16]
  Plant response rating, Kochia: 75
Kochia (Kochia scoparia); Preemergence, 31 g ai/ha
  Plant response rating (scale of 0 to 100), Kochia: 10
Kochia (Kochia scoparia); [17]
  Plant response rating, Kochia: 10
Kochia (Kochia scoparia); [18]
  Plant response rating, Kochia: 35
Kochia (Kochia scoparia); [19]
  Plant response rating, Kochia: 100
Kochia (Kochia scoparia); [20]
  Plant response rating, Kochia: 55
[4]; [14]
  Galium plant response rating: 90
[4]; [15]
  Plant response rating, Galium: 90
[4]; [16]
  Plant response rating, Galium: 98
[4]; Preemergence, 31 g ai/ha
  Plant response rating (scale of 0 to 100), Galium: 85
[4]; [17]
  Plant response rating, Galium: 100
[4]; [18]
  Plant response rating, Galium: 100
[4]; [19]
  Plant response rating, Galium: 100
[4]; [20]
  Plant response rating, Galium: 90
[5]; [14]
  Chamomile plant response rating: 100
[5]; [15]
  Plant response rating, Chamomile: 100
[5]; [16]
  Plant response rating, Chamomile: 100
[5]; [20]
  Plant response rating, Chamomile: 100
[6]; [14]
  Canarygrass plant response rating: 5
[6]; [15]
  Plant response rating, Canarygrass: 15
[6]; [16]
  Plant response rating, Canarygrass: 25
[6]; Preemergence, 31 g ai/ha
  Plant response rating (scale of 0 to 100), Canarygrass: 0
[6]; [17]
  Plant response rating, Canarygrass: 10
[6]; [18]
  Plant response rating, Canarygrass: 55
[6]; [19]
  Plant response rating, Canarygrass: 65
[6]; [20]
  Plant response rating, Canarygrass: 5
[7]; [14]
  Windgrass plant response rating: 10
[7]; [15]
  Plant response rating, Windgrass: 10
[7]; [16]
  Plant response rating, Windgrass: 15
[7]; Preemergence, 31 g ai/ha
  Plant response rating (scale of 0 to 100), Windgrass: 20
[7]; [17]
  Plant response rating, Windgrass: 35
[7]; [18]
  Plant response rating, Windgrass: 65
[7]; [19]
  Plant response rating, Windgrass: 80
[7]; [20]
  Plant response rating, Windgrass: 10
[8]; [14]
  Field Violet plant response rating: 80
[8]; [15]
  Plant response rating, Field Violet: 75
[8]; [16]
  Plant response rating, Field Violet: 85
[8]; Preemergence, 31 g ai/ha
  Plant response rating (scale of 0 to 100), Field Violet: 95
[8]; [17]
  Plant response rating, Field Violet: 100
[8]; [18]
  Plant response rating, Field Violet: 100
[8]; [19]
  Plant response rating, Field Violet: 100
[8]; [20]
  Plant response rating, Field Violet: 70
[9]; [14]
  Bluegrass plant response rating: 5
[9]; [15]
  Plant response rating, Bluegrass: 15
[9]; [16]
  Plant response rating, Bluegrass: 15
[9]; Preemergence, 31 g ai/ha
  Plant response rating (scale of 0 to 100), Bluegrass: 0
[9]; [17]
  Plant response rating, Bluegrass: 20
[9]; [18]
  Plant response rating, Bluegrass: 25
[9]; [19]
  Plant response rating, Bluegrass: 65
[9]; [20]
  Plant response rating, Bluegrass: 15
[10]; [14]
  Field Poppy plant response rating: 100
[10]; [15]
  Plant response rating, Field Poppy: 100
[10]; [16]
  Plant response rating, Field Poppy: 100
[10]; Preemergence, 31 g ai/ha
  Plant response rating (scale of 0 to 100), Field Poppy: 100
[10]; [17]
  Plant response rating, Field Poppy: 100
[10]; [18]
  Plant response rating, Field Poppy: 100
[10]; [19]
  Plant response rating, Field Poppy: 100
[10]; [20]
  Plant response rating, Field Poppy: 100
[11]; [14]
  Lambsquarters plant response rating: 75
[11]; [15]
  Plant response rating, Lambsquarters: 75
[11]; [16]
  Plant response rating, Lambsquarters: 85
[11]; Preemergence, 31 g ai/ha
  Plant response rating (scale of 0 to 100), Lambsquarters: 100
[11]; [17]
  Plant response rating, Lambsquarters: 100
[11]; [18]
  Plant response rating, Lambsquarters: 100
[11]; [19]
  Plant response rating, Lambsquarters: 100
[11]; [20]
  Plant response rating, Lambsquarters: 75
[12]; [14]
  Pigweed plant response rating: 85
[12]; [15]
  Plant response rating, Pigweed: 100
[12]; [16]
  Plant response rating, Pigweed: 100
[12]; Preemergence, 31 g ai/ha
  Plant response rating (scale of 0 to 100), Pigweed: 70
[12]; [17]
  Plant response rating, Pigweed: 75
[12]; [18]
  Plant response rating, Pigweed: 98
[12]; [19]
  Plant response rating, Pigweed: 100
[12]; [20]
  Plant response rating, Pigweed: 85
[13]; [14]
  Barley, Winter plant response rating: 20
[13]; [15]
  Plant response rating, Barley, Winter: 25
[13]; [16]
  Plant response rating, Barley, Winter: 25
[13]; Preemergence, 31 g ai/ha
  Plant response rating (scale of 0 to 100), Barley, Winter: 0
[13]; [17]
  Plant response rating, Barley, Winter: 0
[13]; [18]
  Plant response rating, Barley, Winter: 5
[13]; [19]
  Plant response rating, Barley, Winter: 5
[13]; [20]
  Plant response rating, Barley, Winter: 30
